Source: patent US20260109664A1, “COMPOUNDS FOR USE AS MEDICAMENTS” (priority 2022, published 2026)

Legend:
[1] = tested on: production of 4-methylphenol by C. difficile; assay: HPLC of C. difficile monocultures: 4-methylphenol (p-cresol) production; format: cell-based, Clostridioides difficile; conditions: 630Δerm, 8 hours, 1.5 mg/ml p-HPA with matched 6.6 mM compound, normalised to OD590 nm, FIG. 14
Experimental: C. difficile monocultures were established in the presence of the following compounds EX1, EX3, EX5 and EX8.
Samples of 630Δerm were collected following growth in minimal media with 1% DMSO v/v for 8 hours with 1.5 mg/ml p-HPA with matched (6.6 mM) concentrations of compounds EX1, EX3, EX5 and EX8. At the time of sample collection, the OD590 nm of the culture was measured. Samples were immediately filter sterilised using 0.22 μm filters, then frozen at −80° C. prior to HPLC analysis.
The filter-sterilized samples were transferred to HPLC vials and analysed immediately by injecting onto the HPLC column. Separations were achieved by utilizing an Acclaim 120 (Thermofisher), C18, 5 μm (4.6×150 mm), with the mobile phase consisting of ammonium formate (10 mM, pH 2.7) and […] (v/v; 50:50) at a flow rate of 1400 μl/min. p-HPA and p-cresol were detected by the diode array detector (PDA; DAD 3000) set at 280 nm. Peak identity was confirmed by measuring the retention time of commercially available p-HPA and p-cresol, and determination of absorbance spectra was performed using the DAD. A calibration curve of each compound was generated by Chromeleon (Dionex software) using known amounts of the reference standards (0-5 mg/ml) dissolved in media and injected onto the column, and the amount of p-HPA and p-cresol in the samples was determined. Samples from three independent biological replicates were analysed compared to media controls and standard curves. The limit of detection for p-HPA and p-cresol are 0.001 and 0.0005 mg/ml, respectively. The p-cresol concentration was normalised to growth by using the OD590 nm measured at the time of sample collection.

[2] = tested on: C. difficile 630Δerm; assay: Toxicity growth curves (OD590 nm) of C. difficile monoculture in minimal media; format: cell-based, Clostridioides difficile; conditions: 8-hour growth curve; for effect on the growth of C. difficile (growth curve, OD590 nm): compound 6.6 mM in MM with 1% DMSO, FIGS. 1a to 5b
Experimental: (§1) Compounds EX1 to EX5 were separately tested to determine their toxicity to C. difficile and E. coli.
(§2) Each compound was dissolved to 6.6 mM in minimal media (MM) with 1% DMSO based on the MM described by Cartman et al. in Appln. Environ. Microbiol, 2010, 76, 1103 and the concentration was matched in a 1:1 ratio of the compound to the substrate p-HPA.
(§3) To determine growth rates of C. difficile and E. coli in the presence of compounds EX1 to EX5, three colonies of C. difficile or three colonies of E. coli were used to inoculate a primary culture of 10 mL MM in 50 cm^3 vented tissue culture flasks (Thermo Scientific). Following overnight incubation on a shaking platform at 50 rpm, the primary culture was back diluted in MM to OD590 nm 0.5 using a Fisherbrand™ Digital Colorimeter model 4.5 (Fisher Scientific). 1 ml of the OD590 nm 0.5 culture was inoculated into 10 ml of MM in 50 cm^3 vented tissue culture flasks with and without 4-hydroxyphenylacetic acid and the relevant compound (EX1 to EX5).
(§4) OD590 nm readings were determined every hour for eight hours using a Fisherbrand™ Digital Colorimeter model 4.5 (Fisher Scientific).
(§5) Growth curves denoting growth over an 8-hour time period for C. difficile and E. coli in MM with the presence of 4-hydroxyphenylacetic acid and inhibitors EX1 to EX5, each at 6.6 mM. Absorbance was measured at OD590 nm. *p<0.05, **p<0.01, samples represent a minimum of three biological replicates graphed in GraphPad prism (v9). Raw absorbance was normalised using a blank MM control.

[3] = tested on: E. coli; assay: Toxicity growth curves (OD590 nm) of E. coli monoculture in minimal media; format: cell-based, Escherichia coli; conditions: compound 6.6 mM in MM with 1% DMSO, 8-hour growth curve, FIGS. 1a to 5b
Experimental: as §1, §2, §3, §4, §5

[4] = tested on: production of 4-methylphenol by C. difficile; assay: HPLC of C. difficile / E. coli co-culture: 4-methylphenol production; format: cell-based, Clostridioides difficile; conditions: 630Δerm and E. coli co-culture, no normalisation to OD590 nm, FIG. 15
Experimental: A C. difficile 630Δerm and E. coli co-culture was established (as per the methods previously described) in the presence of compound EX3.
Following co-culture, CFU assays were undertaken to determine relative survival of C. diff and E. coli. The remaining sample was filter sterilised (0.22 μm filters), then frozen at −80° C. prior to the HPLC analysis. HPLC analysis was carried out as described above (HPLC monocultures) with the exception of there being no normalisation of the 4-methylphenol concentration to OD590 nm.

[5] = tested on: C. difficile 630Δerm; assay: Co-culture of C. difficile and E. coli, CFU percentages: C. difficile; format: cell-based, Clostridioides difficile; conditions: MM + 6.6 mM p-HPA + 6.6 mM inhibitor, 1% DMSO, 14 hours co-culture, FIGS. 7 to 13
Experimental: (§6) Compounds EX1 to EX7 were tested to determine their ability to reduce the growth of C. difficile relative to E. coli.
(§7) C. difficile 630Δerm and E. coli were grown overnight in MM. C. difficile was back diluted to an OD590 nm of 0.2. 18 μl of the back dilution was added to 1.8 ml of the test conditions: MM, MM+6.6 mM p-HPA, MM+6.6 mM inhibitor, and MM+6.6 mM p-HPA+6.6 mM inhibitor, in a 24 well plate. Each inhibitor was dissolved in DMSO such that the final concentration in the 24 well plate was 1% v/v. C. difficile was grown for 8 hours before E. coli underwent back dilution to an OD590 nm of 0.2 and 18 μl was inoculated into the C. difficile wells to give the co-culture. The co-culture was grown for 14 hours. The proportion of the co-cultures made up by C. difficile and E. coli were determined by colony-forming units per millilitre (CFU/ml) assays with co-cultures plated on to BHIS plates in duplicate with selective media for each species. C. difficile was selected for using cycloserine (250 mg/l) and cefoxitin (8 mg/l) whilst E. coli was selected for using vancomycin (4 mg/l). […] CFUs were counted on the following day. CFU data is presented using CFU percentages which were calculated by dividing the number of CFUs for each species by the total number of CFUs for both E. coli and C. difficile and multiplying by 100. […] Data was analysed by linear regression carried using Stata17.

[6] = tested on: E. coli; assay: Co-culture of C. difficile and E. coli, CFU percentages: E. coli; format: cell-based, Escherichia coli; conditions: MM + 6.6 mM p-HPA + 6.6 mM inhibitor, 1% DMSO, 14 hours co-culture, FIGS. 7 to 13
Experimental: as §6, §7

NC(=O)Cc1ccc(O)cc1 [EX1]
production of 4-methylphenol by C. difficile (HPLC, monoculture) [1]: reduced | effect on the growth of C. difficile (growth curve, OD590 nm) [2]: no effect on the growth | effect on the growth of E. coli (growth curve, OD590 nm) [3]: inhibited the growth

OCCc1ccc(O)cc1 [EX2]
effect on the growth of C. difficile (growth curve, OD590 nm) [2]: toxic | effect on the growth of E. coli (growth curve, OD590 nm) [3]: toxic

N#CCc1ccc(O)cc1 [EX3]
production of 4-methylphenol by C. difficile (HPLC, co-culture with E. coli) [4]: reduced | production of 4-methylphenol by C. difficile (HPLC, monoculture) [1]: reduced | effect on the growth of C. difficile when both compound and p-HPA present ([2]; compound 6.6 mM + p-HPA 6.6 mM (1:1) in MM): inhibited the growth | effect on the growth of E. coli (growth curve, OD590 nm) [3]: inhibited the growth

O=C(O)CCc1ccc(O)cc1 [EX4]
effect on the growth of C. difficile (growth curve, OD590 nm) [2]: no effect on the growth

O=C(O)c1ccc(O)cc1 [EX5]
production of 4-methylphenol by C. difficile (HPLC, monoculture) [1]: reduced | effect on the growth of C. difficile (growth curve, OD590 nm) [2]: no effect on the growth | effect on the growth of E. coli (growth curve, OD590 nm) [3]: no effect on the growth

CC(C)(C(=O)O)c1ccc(O)cc1 [EX6]
inhibition of the growth of C. difficile in co-culture with E. coli (CFU percentage) [5]: able to inhibit the growth | impact on the growth of E. coli in co-culture with C. difficile [6]: little or no negative impact

O=C(O)Cc1ccc(O)cc1 [EX7]
inhibition of the growth of C. difficile in co-culture with E. coli (CFU percentage) [5]: able to inhibit the growth | impact on the growth of E. coli in co-culture with C. difficile [6]: little or no negative impact

COC(=O)Cc1ccc(O)cc1 [EX8]
production of 4-methylphenol by C. difficile (HPLC, monoculture) [1]: reduced
